Counter-ions that a name gives are not always drawn.
Target: T1, KHK (Homo sapiens, UniProt P50053)
T1 construct: (His)6 tag (N); thrombin cleavage site (N); made in house; host or cells: E. coli BL-21 (DE3)
T1 sequence (P50053 1-298): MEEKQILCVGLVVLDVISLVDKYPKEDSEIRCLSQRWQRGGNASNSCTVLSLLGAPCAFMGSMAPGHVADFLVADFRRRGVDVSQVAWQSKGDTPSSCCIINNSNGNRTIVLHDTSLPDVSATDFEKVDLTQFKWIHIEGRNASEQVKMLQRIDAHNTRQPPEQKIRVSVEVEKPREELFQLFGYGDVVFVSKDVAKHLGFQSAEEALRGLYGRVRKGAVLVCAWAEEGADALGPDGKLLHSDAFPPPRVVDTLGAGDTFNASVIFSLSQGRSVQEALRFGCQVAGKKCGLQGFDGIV
Assay: coupled enzyme assay for KHK activity
Format: biochemical
Details: purified human recombinant KHK, PK/LDH coupled assay, A340 at 25° C., 0.1 mM ATP, 0.2 mM fructose; isoform (KHK-C or KHK-A) not given
Source text: Specific coupled enzyme screening assays were developed for KHK-C and KHK-A using recombinant proteins. Purified human recombinant KHK-C and KHK-A were produced using by expression in E. coli BL-21 (DE3) using IPTG induction as a His-tagged fusion proteins and purified using Ni-NTA chromatography on His-Trap FF columns. For KHK-C, the coding region from NCBI refseq number NM_006488 was inserted at the Nde I site of pET28a(+) vector, which puts it downstream from an amino-terminal (His)6 tag and a thrombin cleavage site. The same was done for KHK-A using the coding regions from NCBI refseq number NM_000221.2. The protein was expressed in BL-21 (DE3) using IPTG induction and purified using Ni-NTA (GE His Trap FF) column. The protein was washed with 100 column volumes, eluted with 3 column volumes, and dialyzed with HEPES, pH 7.4 buffers containing 20, 500, and 0 mM imidazole, respectively. The dialysate was concentrated by ultrafiltration (10kD MWCO) to >15 mg/mL protein. The protein prep was >95% pure on SDS-PAGE and the molecular weight was confirmed by relative mobility to be 33,730 Da (34,826 expected).
The assay uses the product of the KHK reaction, ADP, to drive a signal measured in real time for measuring the reaction rate. This consists of a 3-step, coupled-enzyme process by which pyruvate kinase (PK), which converts the ADP from the KHK reaction along with phosphoenolpyruvate (PEP) to ATP and pyruvate, respectively. The pyruvate is converted along with NADH to lactate and NAD+ by lactate dehydrogenase (LDH). The disappearance of NADH is measured kinetically by monitoring A340 at 25° C. for 15 minutes. The enzymatic assay was carried out in a total reaction volume of 200 μL containing 33 mM triethanolamine-HCl, pH 7.4, 6 mM MgCl2, 100 mM KCl, 0.1 mM ATP, 1.33 mM PEP, 0.3 mM NADH, 0.2-1.0 U of PK, 0.2-1.0 U of LDH, and 150-240 nM KHK-C or KHK-A (0.01-0.02 U). Fructose was added to initiate the reactions to 0.2 mM, except for the no fructose controls which utilized water. This high-throughput assay was used to identify inhibitors that have an IC50 value<1 μM for KHK-C and to confirm that those values for KHK-A were not more than 2-fold lower.

| Structure (SMILES) | IC50 |
| --- | --- |
| Cc1cccc(-n2ncc3ccc(NC(=O)[C@@H](N)CCN)cc32)c1 [Compound 13, (S)-2,4-diamino-N-(1-(m-tolyl)-1H-indazol-6-yl)butanamide] | 0.35 µM |
| CCCCCCCC(=O)OC[C@H](N)C(=O)Nc1ccc2cnn(-c3cccc(C)c3)c2c1 [Compound 24, (S)-2-amino-3-oxo-3-((1-(m-tolyl)-1H-indazol-6-yl)amino)propyl octanoate hydrochloride] | 12 µM |
| Cc1cccc(-n2ncc3ccc(NC(=O)[C@@](C)(N)CO)cc32)c1 [Compound 22, (S)-2-amino-3-hydroxy-2-methyl-N-(1-(m-tolyl)-1H-indazol-6-yl)propanamide hydrochloride] | 0.42 µM |
| Cc1cccc(-n2ncc3ccc(NC(=O)[C@H]4CC[C@@H]4N)cc32)c1 (relative stereo) [Compound 9, trans-2-amino-N-(1-(m-tolyl)-1H-indazol-6-yl)cyclobutanecarboxamide hydrochloride] | 0.67 µM |
| Cc1cccc(-n2ncc3c(F)cc(NC(=O)[C@H]4NCC[C@@H]4O)cc32)c1 [Compound 19, (2S,3S)-N-(4-fluoro-1-(m-tolyl)-1H-indazol-6-yl)-3-hydroxypyrrolidine-2-carboxamide hydrochloride] | 0.52 µM |
| Cc1cccc(-n2ncc3c(F)cc(NC(=O)[C@@H](N)CO)cc32)c1 [Compound 23, (S)-2-amino-N-(4-fluoro-1-(m-tolyl)-1H-indazol-6-yl)-3-hydroxypropanamide hydrochloride] | 0.024 µM |
| Cc1cccc(-n2ncc3ccc(NC(=O)[C@@H](N)[C@H](C)O)cc32)c1 [Compound 17, (2S,3S)-2-amino-3-hydroxy-N-(1-(m-tolyl)-1H-indazol-6-yl)butanamide hydrochloride] | 7 µM |
| Cc1cccc(-n2ncc3ccc(NC(=O)[C@H]4NCC[C@@H]4O)cc32)c1 [Compound 18, (2S,3S)-3-hydroxy-N-(1-(m-tolyl)-1H-indazol-6-yl)pyrrolidine-2-carboxamide hydrochloride] | 0.7 µM |
| Cc1cccc(-n2ncc3ccc(NC(=O)[C@@H](N)CO)cc32)c1 [Compound 3, (S)-2-amino-3-hydroxy-N-(1-(m-tolyl)-1H-indazol-6-yl)propanamide hydrochloride] | 0.04 µM |
| Cc1cccc(-n2ncc3ccc(NC(=O)[C@@H](N)CCO)cc32)c1 [Compound 10, (S)-2-amino-4-hydroxy-N-(1-(m-tolyl)-1H-indazol-6-yl)butanamide hydrochloride] | 0.4 µM |
| Cc1cccc(-n2ncc3ccc(NC(=O)[C@@H](N)C(C)(C)O)cc32)c1 [Compound 21, (S)-2-amino-3-hydroxy-3-methyl-N-(1-(m-tolyl)-1H-indazol-6-yl]butanamide hydrochloride] | 3.6 µM |
| Cc1cccc(-n2ncc3ccc(NC(=O)[C@@H](C)N)cc32)c1 [Compound 7, (R)-2-amino-N-(1-(m-tolyl)-1H-indazol-6-yl)propanamide hydrochloride] | 0.27 µM |
| Cc1cccc(-n2ncc3ccc(NC(=O)C[C@H](N)CO)cc32)c1 [Compound 11, (S)-3-amino-4-hydroxy-N-(1-(m-tolyl)-1H-indazol-6-yl)butanamide hydrochloride] | 1.2 µM |
| Cc1cccc(-n2ncc3ccc(NC(=O)[C@H](C)N)cc32)c1 [Compound 6, (S)-2-amino-N-(1-(m-tolyl)-1H-indazol-6-yl)propanamide hydrochloride] | 0.11 µM |
| Cc1cccc(-n2ncc3ccc(NC(=O)[C@H](CN)CO)cc32)c1 [Compound 4, (R)-3-amino-2-(hydroxymethyl)-N-(1-(m-tolyl)-1H-indazol-6-yl)propanamide hydrochloride] | 0.62 µM |
| Cc1cccc(-n2ncc3ccc(NC(=O)[C@@H](N)[C@@H](C)O)cc32)c1 [Compound 20, (2S,3R)-2-amino-3-hydroxy-N-(1-(m-tolyl)-1H-indazol-6-yl)butanamide hydrochloride] | 0.72 µM |

The remaining lines, values ahead:

| IC50 | Structure (SMILES) |
| --- | --- |
| 0.46 µM | Cc1cccc(-n2nc(C(F)F)c3ccc(NC(=O)[C@@H](N)CO)cc32)c1 [Compound 48, (S)-2-amino-N-(3-(difluoromethyl)-1-(m-tolyl)-1H-indazol-6-yl)-3-hydroxypropanamide hydrochloride] |
| 200 µM | CCCCCCCC(=O)OC[C@H](NC(=O)OC(C)C)C(=O)Nc1ccc2cnn(-c3cccc(C)c3)c2c1 [Compound 35, (S)-2-((isoproxycarbonyl)amino)-3-oxo-3-((1-(m-tolyl)-1H-indazol-6-yl)amino)propyl octanoate] |
| 0.14 µM | Cc1cccc(-n2nnc3ccc(NC(=O)[C@@H](N)CO)cc32)c1 [Compound 40, (S)-2-amino-3-hydroxy-N-(1-(m-tolyl)-1H-benzo[d][1,2,3]triazol-6-yl)propanamide hydrochloride] |
| 15 µM | Cc1cccc(-n2ncc3cnc(NC(=O)[C@@H](N)CO)cc32)c1 [Compound 44, (S)-2-amino-3-hydroxy-N-(1-(m-tolyl)-1H-pyrazolo[4,3-c]pyridin-6-yl)propanamide hydrochloride] |
| 4 µM | Cc1cccc(-n2ncc3ccc(NC(=O)[C@H](CO)NC(=O)OC(C)C)cc32)c1 [Compound 37, (S)-isopropyl (3-hydroxy-1-oxo-1-((1-(m-tolyl)-1H-indazol-6-yl)amino)propan-2-yl)carbamate] |
| 30 µM | CC(=O)OC[C@H](NC(=O)OC(C)C)C(=O)Nc1ccc2cnn(-c3cccc(C)c3)c2c1 [Compound 31, (S)-2-((isopropoxycarbonyl)amino)-3-oxo-3-((1-(m-tolyl)-1H-indazol-6-yl)amino)propyl acetate] |
| 2.7 µM | CC(=O)OC[C@H](N)C(=O)Nc1ccc2cnn(-c3cccc(C)c3)c2c1 [Compound 41, (S)-2-amino-3-oxo-3-((1-(m-tolyl)-1H-indazol-6-yl)amino)propyl acetate hydrochloride] |
| 1.8 µM | Cc1cccc(-n2ncc3cc(C)c(NC(=O)[C@@H](N)CO)cc32)c1 [Compound 42, (S)-2-amino-3-hydroxy-N-(5-methyl-1-(m-tolyl)-1H-indazol-6-yl)propanamide hydrochloride] |
| > 1000 µM | CCCCCCCC(=O)OC[C@H](NC(=O)OCC)C(=O)Nc1ccc2cnn(-c3cccc(C)c3)c2c1 [Compound 34, (S)-2-((ethoxycarbonyl)amino)-3-oxo-3-((1-(m-tolyl)-1H-indazol-6-yl)amino)propyl octanoate] |
| 0.7 µM | Cc1cccc(-n2ncc3ccc(NC(=O)C(N)C(=O)O)cc32)c1 (centres unmarked) [Compound 39, 2-amino-3-oxo-3-((1-(m-tolyl)-1H-indazol-6-yl)amino)propanoic acid hydrochloride] |
| 0.4 µM | CCOC(=O)N[C@@H](CO)C(=O)Nc1ccc2cnn(-c3cccc(C)c3)c2c1 [Compound 36, (S)-ethyl (3-hydroxy-1-oxo-1-((1-(m-tolyl)-1H indazol-6-yl)amino)propan-2-yl)carbamate] |
| > 1000 µM | CCOC(=O)N[C@@H](COC(=O)c1cccnc1)C(=O)Nc1ccc2cnn(-c3cccc(C)c3)c2c1 [Compound 32, (S)-2-((ethyloxycarbonyl)amino)-3-oxo-3-((1-(m-tolyl)-1H-indazol-6-yl)amino)propyl nicotinate] |
| 8 µM | CCCCCCCC(=O)OC[C@H](N)C(=O)Nc1cc(F)c2cnn(-c3cccc(C)c3)c2c1 [Compound 26, (S)-2-amino-3-((4-fluoro-1-(m-tolyl)-1H-indazol-6-yl)amino)-3-oxopropyl octanoate hydrochloride] |
| 1.4 µM | Cc1cccc(-n2ncc3ccc(NC(=O)C(N)C(N)=O)cc32)c1 (centres unmarked) [Compound 38, 2-amino-N1-(1-(m-tolyl)-1H-indazol-6-yl)malonamide hydrochloride] |
| 24 µM | CCOC(=O)N[C@@H](COC(C)=O)C(=O)Nc1ccc2cnn(-c3cccc(C)c3)c2c1 [Compound 30, (S)-2-((ethyloxycarbonyl)amino)-3-oxo-3-((1-(m-tolyl)-1H-indazol-6-yl)amino)propyl acetate] |
| 1.86 µM | CCc1nn(-c2cccc(C)c2)c2cc(NC(=O)[C@@H](N)CO)ccc12 [Compound 43, (S)-2-amino-N-(3-ethyl-1-(m-tolyl)-1H-indazol-6-yl)-3-hydroxypropanamide hydrochloride] |
